According to patent publication US20040002425A1, “Triketone derivatives and herbicides” (Idemitsu Kosan Co., Ltd., priority 1998, published 2004):

Tested on: Transplanted paddy rice plant
Test: Biological Test 1 (treatment on the 3rd day after transplantation): chemical injury to paddy rice
Format: in vivo
Set-up: scale not given here
Settings: Treatment performed 3 days after transplantation
Procedure: (1) Preparation of Herbicide
Talc (57 parts by weight) and bentonite (40 parts by weight), both serving as carriers, and sodium alkylbenzenesulfate (3 parts by weight) serving as a surfactant were homogeneously ground and mixed to thereby obtain a carrier for water-dispersible powder.
Subsequently, to the water-dispersible powder (90 parts by weight), the triketone derivative (compound No. A-1) produced in Example I-1 (10 parts by weight) was added, and the resultant mixture was homogeneously ground and mixed to thereby obtain a herbicide.
(i) Biological Test 1 (Soaking in Water/Treatment on the 3rd Day After Transplantation)
A Wagner pot (1/2000 are) was filled with paddy soil, and seeds of barnyard grass were planted on the surface layer of the soil, and further, rice seedlings grown to the 2.5-leaf stage were transplanted.
Subsequently, water was poured in the pot to a height of 3 cm above the soil surface, and placed in a greenhouse where the temperature was maintained at 20-25° C., to thereby grow the plant under suitable conditions.
On the 3rd day after transplantation, the herbicide prepared in (1) above was applied to the plant in a predetermined amount. On the 30th day after treatment with the herbicide, weed-killing ratio, herbicidal effect, and extent of chemical injury to paddy rice were examined.
In Biological tests 1 and 2, herbicidal effect and extent of chemical injury were evaluated according to the below-described standards.
3) Chemical Injury to Paddy Rice
Chemical injury to paddy rice was evaluated according to the following criteria.

SMILES: Cc1ccc(SC2=C(C(=O)c3ccc4c(c3Cl)CCS4(=O)=O)C(=O)CCC2)cc1 [B-14, 4-chloro-5-[3-(4-methylphenyl)thio-1-oxocyclohexan-2-yl]carbonyl-2,3-dihydrobenzothiophene-1,1-dioxide]
- Chemical injury, Transplanted paddy rice plant (dose 100 g/ha): 0
- Chemical injury, Transplanted paddy rice plant (dose 200 g/ha): 0

SMILES: Cc1cccc(SC2=C(C(=O)c3ccc4c(c3Cl)CCS4(=O)=O)C(=O)CCC2)c1 [B-15, 4-chloro-5-[3-(3-methylphenyl)thio-1-oxocyclohexan-2-yl]carbonyl-2,3-dihydrobenzothiophene-1,1-dioxide]
- Chemical injury, Transplanted paddy rice plant (dose 100 g/ha): 0
- Chemical injury, Transplanted paddy rice plant (dose 200 g/ha): 0

SMILES: Cc1ccccc1SC1=C(C(=O)c2ccc3c(c2Cl)CCS3(=O)=O)C(=O)CCC1 [B-16]
- Chemical injury, Transplanted paddy rice plant (dose 100 g/ha): 0
- Chemical injury, Transplanted paddy rice plant (dose 200 g/ha): 0

SMILES: O=C1CCCC(Sc2ccccc2Cl)=C1C(=O)c1ccc2c(c1Cl)CCS2(=O)=O [B-17]
- Chemical injury, Transplanted paddy rice plant (dose 100 g/ha): 0
- Chemical injury, Transplanted paddy rice plant (dose 200 g/ha): 0

SMILES: CC(C)c1ccccc1SC1=C(C(=O)c2ccc3c(c2Cl)CCS3(=O)=O)C(=O)CCC1 [B-18]
- Chemical injury, Transplanted paddy rice plant (dose 100 g/ha): 0
- Chemical injury, Transplanted paddy rice plant (dose 200 g/ha): 0

SMILES: COC(=O)c1ccccc1SC1=C(C(=O)c2ccc3c(c2Cl)CCS3(=O)=O)C(=O)CCC1 [B-19]
- Chemical injury, Transplanted paddy rice plant (dose 100 g/ha): 0
- Chemical injury, Transplanted paddy rice plant (dose 200 g/ha): 0

SMILES: COc1ccc(SC2=C(C(=O)c3ccc4c(c3Cl)CCS4(=O)=O)C(=O)CCC2)cc1 [B-20]
- Chemical injury, Transplanted paddy rice plant (dose 100 g/ha): 0
- Chemical injury, Transplanted paddy rice plant (dose 200 g/ha): 0

SMILES: O=C1CCCC(Sc2ccc(Br)cc2)=C1C(=O)c1ccc2c(c1Cl)CCS2(=O)=O [B-21]
- Chemical injury, Transplanted paddy rice plant (dose 100 g/ha): 0
- Chemical injury, Transplanted paddy rice plant (dose 200 g/ha): 0

SMILES: C=CCSC1=C(C(=O)c2ccc3c(c2Cl)CCS3(=O)=O)C(=O)CCC1 [B-22, 4-chloro-5-[3-(3-propenyl)thio-1-oxocyclohexan-2-yl]carbonyl-2,3-dihydrobenzothiophene-1,1-dioxide]
- Chemical injury, Transplanted paddy rice plant (dose 100 g/ha): 0
- Chemical injury, Transplanted paddy rice plant (dose 200 g/ha): 0

SMILES: CC(C)(C)SC1=C(C(=O)c2ccc3c(c2Cl)CCS3(=O)=O)C(=O)CCC1 [B-23]
- Chemical injury, Transplanted paddy rice plant (dose 100 g/ha): 0
- Chemical injury, Transplanted paddy rice plant (dose 200 g/ha): 0

SMILES: CS(=O)(=O)C1=C(C(=O)c2ccc3c(c2Cl)CCS3(=O)=O)C(=O)CCC1 [B-24]
- Chemical injury, Transplanted paddy rice plant (dose 100 g/ha): 0
- Chemical injury, Transplanted paddy rice plant (dose 200 g/ha): 0

SMILES: CC1CC(=O)C(C(=O)c2ccc3c(c2Cl)CCS3(=O)=O)=C(Cl)C1 (stereo not drawn) [B-25]
- Chemical injury, Transplanted paddy rice plant (dose 100 g/ha): 0
- Chemical injury, Transplanted paddy rice plant (dose 200 g/ha): 1

SMILES: CC1CC(=O)C(C(=O)c2ccc3c(c2Cl)CCS3(=O)=O)=C(Sc2ccccc2)C1 (stereo not drawn) [B-26]
- Chemical injury, Transplanted paddy rice plant (dose 100 g/ha): 0
- Chemical injury, Transplanted paddy rice plant (dose 200 g/ha): 0

SMILES: CCS(=O)(=O)C1=C(C(=O)c2ccc3c(c2Cl)CCS3(=O)=O)C(=O)CCC1 [B-27]
- Chemical injury, Transplanted paddy rice plant (dose 100 g/ha): 0
- Chemical injury, Transplanted paddy rice plant (dose 200 g/ha): 0

SMILES: CCCS(=O)(=O)C1=C(C(=O)c2ccc3c(c2Cl)CCS3(=O)=O)C(=O)CCC1 [B-28]
- Chemical injury, Transplanted paddy rice plant (dose 100 g/ha): 0
- Chemical injury, Transplanted paddy rice plant (dose 200 g/ha): 0

SMILES: CC(C)S(=O)(=O)C1=C(C(=O)c2ccc3c(c2Cl)CCS3(=O)=O)C(=O)CCC1 [B-29]
- Chemical injury, Transplanted paddy rice plant (dose 100 g/ha): 0
- Chemical injury, Transplanted paddy rice plant (dose 200 g/ha): 0

SMILES: CCCCS(=O)(=O)C1=C(C(=O)c2ccc3c(c2Cl)CCS3(=O)=O)C(=O)CCC1 [B-30]
- Chemical injury, Transplanted paddy rice plant (dose 100 g/ha): 0
- Chemical injury, Transplanted paddy rice plant (dose 200 g/ha): 0

SMILES: O=C1CCCC(S(=O)(=O)c2ccccc2)=C1C(=O)c1ccc2c(c1Cl)CCS2(=O)=O [B-31]
- Chemical injury, Transplanted paddy rice plant (dose 100 g/ha): 0
- Chemical injury, Transplanted paddy rice plant (dose 200 g/ha): 0

SMILES: Cc1ccccc1S(=O)(=O)C1=C(C(=O)c2ccc3c(c2Cl)CCS3(=O)=O)C(=O)CCC1 [B-32]
- Chemical injury, Transplanted paddy rice plant (dose 100 g/ha): 0
- Chemical injury, Transplanted paddy rice plant (dose 200 g/ha): 0

SMILES: Cc1cccc(S(=O)(=O)C2=C(C(=O)c3ccc4c(c3Cl)CCS4(=O)=O)C(=O)CCC2)c1 [B-33]
- Chemical injury, Transplanted paddy rice plant (dose 100 g/ha): 0
- Chemical injury, Transplanted paddy rice plant (dose 200 g/ha): 0

SMILES: Cc1ccc(S(=O)(=O)C2=C(C(=O)c3ccc4c(c3Cl)CCS4(=O)=O)C(=O)CCC2)cc1 [B-34]
- Chemical injury, Transplanted paddy rice plant (dose 100 g/ha): 0
- Chemical injury, Transplanted paddy rice plant (dose 200 g/ha): 0

SMILES: O=C1CCCC(S(=O)(=O)c2ccccc2Cl)=C1C(=O)c1ccc2c(c1Cl)CCS2(=O)=O [B-35]
- Chemical injury, Transplanted paddy rice plant (dose 100 g/ha): 0
- Chemical injury, Transplanted paddy rice plant (dose 200 g/ha): 0

SMILES: CC(C)c1ccccc1S(=O)(=O)C1=C(C(=O)c2ccc3c(c2Cl)CCS3(=O)=O)C(=O)CCC1 [B-36]
- Chemical injury, Transplanted paddy rice plant (dose 100 g/ha): 0
- Chemical injury, Transplanted paddy rice plant (dose 200 g/ha): 0

SMILES: COc1ccc(S(=O)(=O)C2=C(C(=O)c3ccc4c(c3Cl)CCS4(=O)=O)C(=O)CCC2)cc1 [B-37]
- Chemical injury, Transplanted paddy rice plant (dose 100 g/ha): 0
- Chemical injury, Transplanted paddy rice plant (dose 200 g/ha): 0

SMILES: C=CCS(=O)(=O)C1=C(C(=O)c2ccc3c(c2Cl)CCS3(=O)=O)C(=O)CCC1 [B-38, 4-chloro-5-[3-(3-propenyl)sulfonyl-1-oxocyclohexan-2-yl]carbonyl-2,3-dihydrobenzothiophene-1,1-dioxide]
- Chemical injury, Transplanted paddy rice plant (dose 100 g/ha): 0
- Chemical injury, Transplanted paddy rice plant (dose 200 g/ha): 0

SMILES: CC(C)(C)S(=O)(=O)C1=C(C(=O)c2ccc3c(c2Cl)CCS3(=O)=O)C(=O)CCC1 [B-39]
- Chemical injury, Transplanted paddy rice plant (dose 100 g/ha): 0
- Chemical injury, Transplanted paddy rice plant (dose 200 g/ha): 0

SMILES: O=C1CCCC(S(=O)(=O)Cc2ccccc2)=C1C(=O)c1ccc2c(c1Cl)CCS2(=O)=O [B-40]
- Chemical injury, Transplanted paddy rice plant (dose 100 g/ha): 0
- Chemical injury, Transplanted paddy rice plant (dose 200 g/ha): 0

SMILES: O=C1CCCC(S(=O)(=O)c2ccc(Br)cc2)=C1C(=O)c1ccc2c(c1Cl)CCS2(=O)=O [B-42]
- Chemical injury, Transplanted paddy rice plant (dose 100 g/ha): 0
- Chemical injury, Transplanted paddy rice plant (dose 200 g/ha): 0

SMILES: O=C1CCCC(S(=O)(=O)c2ccc(O)cc2)=C1C(=O)c1ccc2c(c1Cl)CCS2(=O)=O [B-43]
- Chemical injury, Transplanted paddy rice plant (dose 100 g/ha): 0
- Chemical injury, Transplanted paddy rice plant (dose 200 g/ha): 0

SMILES: COC(=O)c1ccccc1S(=O)(=O)C1=C(C(=O)c2ccc3c(c2Cl)CCS3(=O)=O)C(=O)CCC1 [B-44]
- Chemical injury, Transplanted paddy rice plant (dose 100 g/ha): 0
- Chemical injury, Transplanted paddy rice plant (dose 200 g/ha): 0

SMILES: CC(=O)c1ccc(SC2=C(C(=O)c3ccc4c(c3Cl)CCS4(=O)=O)C(=O)CCC2)cc1 [B-45, 4-chloro-5-[3-(4-acetylphenyl)thio-1-oxocyclohexan-2-yl]carbonyl-2,3-dihydrobenzothiophene-1,1-dioxide]
- Chemical injury, Transplanted paddy rice plant (dose 100 g/ha): 0
- Chemical injury, Transplanted paddy rice plant (dose 200 g/ha): 0

SMILES: CC(=O)c1ccc(S(=O)(=O)C2=C(C(=O)c3ccc4c(c3Cl)CCS4(=O)=O)C(=O)CCC2)cc1 [B-46]
- Chemical injury, Transplanted paddy rice plant (dose 100 g/ha): 0
- Chemical injury, Transplanted paddy rice plant (dose 200 g/ha): 0

SMILES: Cc1c(C(=O)C2=C(Cl)CCCC2=O)ccc2c1CCS2(=O)=O [B-47]
- Chemical injury, Transplanted paddy rice plant (dose 100 g/ha): 0
- Chemical injury, Transplanted paddy rice plant (dose 200 g/ha): 0

SMILES: O=C1CCCC(Sc2ccccc2O)=C1C(=O)c1ccc2c(c1Cl)CCS2(=O)=O [B-48]
- Chemical injury, Transplanted paddy rice plant (dose 100 g/ha): 0
- Chemical injury, Transplanted paddy rice plant (dose 200 g/ha): 0

SMILES: O=C1CCCC(S(=O)(=O)c2ccccc2O)=C1C(=O)c1ccc2c(c1Cl)CCS2(=O)=O [B-49]
- Chemical injury, Transplanted paddy rice plant (dose 100 g/ha): 0
- Chemical injury, Transplanted paddy rice plant (dose 200 g/ha): 0

SMILES: COCCOC1=C(C(=O)c2ccc3c(c2Cl)CCS3(=O)=O)C(=O)CCC1 [B-53]
- Chemical injury, Transplanted paddy rice plant (dose 100 g/ha): 0
- Chemical injury, Transplanted paddy rice plant (dose 200 g/ha): 0

SMILES: CO/N=C1\CCS(=O)(=O)c2c(C)cc(C(=O)C3=C(Cl)CCCC3=O)c(C)c21 [B-54]
- Chemical injury, Transplanted paddy rice plant (dose 100 g/ha): 1
- Chemical injury, Transplanted paddy rice plant (dose 200 g/ha): 4

SMILES: CO/N=C1\CCS(=O)(=O)c2c(C)cc(C(=O)C3=C(N(C)C)CCCC3=O)c(C)c21 [B-55, 4-methoxyimino-5,8-dimethyl-6-(3-dimethylamino-1-oxocyclohexan-2-yl)carbonylthiochroman-1,1-1,1-dioxide]
- Chemical injury, Transplanted paddy rice plant (dose 100 g/ha): 0
- Chemical injury, Transplanted paddy rice plant (dose 200 g/ha): 0

SMILES: CO/N=C1\CCS(=O)(=O)c2c(C)cc(C(=O)C3=C(N(C)OC)CCCC3=O)c(C)c21 [B-57, 4-methoxyimino-5,8-dimethyl-6-[3-(N-methoxymethyl)amino-1-oxocyclohexan-2-yl]carbonylthiochroman-1,1-1,1-dioxide]
- Chemical injury, Transplanted paddy rice plant (dose 100 g/ha): 0
- Chemical injury, Transplanted paddy rice plant (dose 200 g/ha): 3

SMILES: CO/N=C1\CCS(=O)(=O)c2c(C)cc(C(=O)C3=C(Nc4ccc(C)cc4)CCCC3=O)c(C)c21 [B-58, 4-methoxyimino-5,8-dimethyl-6-[3-(4-methylphenyl)amino-1-oxocyclohexan-2-yl]carbonylthiochroman-1,1-1,1-dioxide]
- Chemical injury, Transplanted paddy rice plant (dose 100 g/ha): 0
- Chemical injury, Transplanted paddy rice plant (dose 200 g/ha): 0

SMILES: CO/N=C1\CCS(=O)(=O)c2c(C)cc(C(=O)C3=C(Sc4ccc(C)cc4)CCCC3=O)c(C)c21 [B-59, 4-methoxyimino-5,8-dimethyl-6-[3-(4-methylphenyl)thio-1-oxocyclohexan-2-yl]carbonylthiochroman-1,1-1,1-dioxide]
- Chemical injury, Transplanted paddy rice plant (dose 100 g/ha): 0
- Chemical injury, Transplanted paddy rice plant (dose 200 g/ha): 0

SMILES: CO/N=C1\CCS(=O)(=O)c2c(C)cc(C(=O)C3=C(S(=O)(=O)c4ccc(C)cc4)CCCC3=O)c(C)c21 [B-60, 4-methoxyimino-5,8-dimethyl-6-[3-(4-methylphenyl)sulfonyl-1-oxocyclohexan-2-yl]carbonylthiochroman-1,1-1,1-dioxide]
- Chemical injury, Transplanted paddy rice plant (dose 100 g/ha): 0
- Chemical injury, Transplanted paddy rice plant (dose 200 g/ha): 0
